ChEMBL document CHEMBL2074455, “The fluorescent probe Bodipy-FL-verapamil is a substrate for both P-glycoprotein and multidrug resistance-related protein (MRP)-1” (J Histochem Cytochem, 2002)

Legend:
[1] = target: Multidrug resistance-associated protein 1 (Homo sapiens, UniProt P33527); assay: TP_TRANSPORTER: efflux, inhibited by MK571 in PANC-1 cells; type: functional, cell-based
[2] = target: ATP-dependent translocase ABCB1 (Mus musculus, UniProt P21447); assay: TP_TRANSPORTER: efflux, inhibited by Verapamil in P388/ADR cells; type: functional, cell-based
Chain of ATP-dependent translocase ABCB1 (P21447 whole entry): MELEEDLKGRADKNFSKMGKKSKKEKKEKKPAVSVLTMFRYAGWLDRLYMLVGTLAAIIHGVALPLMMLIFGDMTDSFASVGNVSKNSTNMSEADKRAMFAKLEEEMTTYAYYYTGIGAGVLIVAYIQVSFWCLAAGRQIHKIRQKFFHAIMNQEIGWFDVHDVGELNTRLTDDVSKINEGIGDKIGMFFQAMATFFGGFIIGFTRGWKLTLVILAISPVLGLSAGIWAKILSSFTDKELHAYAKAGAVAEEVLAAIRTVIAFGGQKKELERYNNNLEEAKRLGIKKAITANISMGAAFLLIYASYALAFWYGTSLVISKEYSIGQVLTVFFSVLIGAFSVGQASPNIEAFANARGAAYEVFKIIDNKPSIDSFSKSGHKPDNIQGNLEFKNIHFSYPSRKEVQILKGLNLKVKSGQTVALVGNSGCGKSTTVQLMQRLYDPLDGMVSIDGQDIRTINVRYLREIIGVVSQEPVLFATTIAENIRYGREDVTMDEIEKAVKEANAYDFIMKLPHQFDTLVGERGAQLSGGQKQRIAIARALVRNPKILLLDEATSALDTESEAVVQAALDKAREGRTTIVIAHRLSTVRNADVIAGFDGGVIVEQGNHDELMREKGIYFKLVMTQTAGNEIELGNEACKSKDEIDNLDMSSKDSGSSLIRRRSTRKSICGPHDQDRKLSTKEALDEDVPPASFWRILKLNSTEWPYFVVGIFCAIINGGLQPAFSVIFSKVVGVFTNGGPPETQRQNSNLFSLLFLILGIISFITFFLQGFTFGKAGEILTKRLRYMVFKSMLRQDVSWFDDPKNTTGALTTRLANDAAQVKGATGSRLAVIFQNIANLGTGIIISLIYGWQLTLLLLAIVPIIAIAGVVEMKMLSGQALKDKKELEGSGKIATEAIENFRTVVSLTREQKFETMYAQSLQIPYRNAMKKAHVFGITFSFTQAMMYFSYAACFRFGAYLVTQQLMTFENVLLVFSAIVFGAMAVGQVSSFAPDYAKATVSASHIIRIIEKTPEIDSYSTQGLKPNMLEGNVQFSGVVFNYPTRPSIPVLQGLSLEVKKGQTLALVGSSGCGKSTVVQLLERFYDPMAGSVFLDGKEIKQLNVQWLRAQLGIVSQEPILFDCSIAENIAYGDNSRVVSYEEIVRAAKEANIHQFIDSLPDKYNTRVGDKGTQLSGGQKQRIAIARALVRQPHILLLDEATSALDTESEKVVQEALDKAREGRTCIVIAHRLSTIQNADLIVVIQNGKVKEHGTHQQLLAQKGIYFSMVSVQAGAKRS

Chain of Multidrug resistance-associated protein 1 (P33527 whole entry): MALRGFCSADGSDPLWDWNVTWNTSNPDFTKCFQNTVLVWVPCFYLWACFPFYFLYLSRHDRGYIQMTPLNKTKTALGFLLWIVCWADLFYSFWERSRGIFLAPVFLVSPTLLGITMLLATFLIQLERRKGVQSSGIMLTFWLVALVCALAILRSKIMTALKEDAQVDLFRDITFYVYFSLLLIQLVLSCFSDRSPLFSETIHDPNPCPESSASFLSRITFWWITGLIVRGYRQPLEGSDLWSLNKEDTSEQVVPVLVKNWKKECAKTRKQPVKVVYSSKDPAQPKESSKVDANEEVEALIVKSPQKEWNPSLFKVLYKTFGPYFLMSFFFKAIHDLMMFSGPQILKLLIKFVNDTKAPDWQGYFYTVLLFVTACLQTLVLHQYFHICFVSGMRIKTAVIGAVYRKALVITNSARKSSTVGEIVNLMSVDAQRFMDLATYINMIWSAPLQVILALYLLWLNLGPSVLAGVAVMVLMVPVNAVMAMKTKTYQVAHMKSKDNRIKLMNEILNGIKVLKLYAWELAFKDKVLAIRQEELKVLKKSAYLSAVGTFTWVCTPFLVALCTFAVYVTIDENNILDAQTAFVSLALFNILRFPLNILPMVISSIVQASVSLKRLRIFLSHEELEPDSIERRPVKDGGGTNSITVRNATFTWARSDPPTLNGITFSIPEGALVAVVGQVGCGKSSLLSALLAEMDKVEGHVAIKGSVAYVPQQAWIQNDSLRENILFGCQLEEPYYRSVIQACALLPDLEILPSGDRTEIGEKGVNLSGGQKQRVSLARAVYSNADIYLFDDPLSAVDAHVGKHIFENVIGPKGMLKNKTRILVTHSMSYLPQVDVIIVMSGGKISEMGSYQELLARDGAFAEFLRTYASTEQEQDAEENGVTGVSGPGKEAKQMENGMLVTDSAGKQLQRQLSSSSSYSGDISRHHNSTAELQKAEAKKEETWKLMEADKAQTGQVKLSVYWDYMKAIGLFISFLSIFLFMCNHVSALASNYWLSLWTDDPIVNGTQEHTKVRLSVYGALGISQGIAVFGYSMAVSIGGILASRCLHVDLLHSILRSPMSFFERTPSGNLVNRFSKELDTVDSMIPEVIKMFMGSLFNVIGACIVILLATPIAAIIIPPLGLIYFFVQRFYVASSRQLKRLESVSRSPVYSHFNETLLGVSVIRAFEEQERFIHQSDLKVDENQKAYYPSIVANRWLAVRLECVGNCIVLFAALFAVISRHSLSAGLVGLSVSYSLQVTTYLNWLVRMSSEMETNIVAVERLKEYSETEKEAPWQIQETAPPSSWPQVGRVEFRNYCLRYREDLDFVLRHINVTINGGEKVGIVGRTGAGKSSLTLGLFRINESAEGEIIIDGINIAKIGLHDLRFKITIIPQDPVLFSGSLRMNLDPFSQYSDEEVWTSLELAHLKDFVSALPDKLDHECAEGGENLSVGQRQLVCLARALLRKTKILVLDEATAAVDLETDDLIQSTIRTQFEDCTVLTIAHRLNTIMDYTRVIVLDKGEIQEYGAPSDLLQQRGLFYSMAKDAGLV

## COc1ccc(CCN(C)CCCC(CNC(=O)NCC2=[N+]3C(=Cc4c(C)cc(C)n4[B-]3(F)F)C=C2)(c2ccc(OC)c(OC)c2)C(C)C)cc1OC (configuration not stated)
[1]
  Activity: substrate [+]
[2]
  Activity: substrate [+]
